Measured values from US6596500B1, “Binding of retinoids to M6P/IGF-II receptor” (The General Hospital Corporation, priority 1998, dated 2003).
“Also recorded” adds a separate entry of the source.

Columns and labels:
HL-60R cells = assay: Growth and apoptosis of HL-60R cells overexpressing M6P/IGF2R; assay type: cell-based, human; conditions: 1 μM RA; HL-60R cells transfected with M6P/IGF2R cDNA
Experimental: FIG. 9 is a graph showing the effect of RA treatment on growth (number of viable cells) of HL-60R cells overexpressing M6P/IGF2R protein and HL-60R controls. Open circles, vector control cells without RA treatment; closed circles, vector control cells with 1 μM RA treatment; open squares, overexpressing cells without RA treatment; closed squares overexpressing cells with 1 μM RA treatment.
We examined the M6P/IGF2R-mediated effects of RA in the absence of nuclear RA receptors, by using human cell line HL-60R, which lacks functional nuclear RA receptors. This cell line expresses low levels of M6P/IGF2R protein. We transfected HL-60R cells with a plasmid encoding human M6P/IGF2R, so they overexpressed M6P/IGF2R. Then we assessed their response to RA. […] Apoptosis was assayed using FITC-labeled annexin V staining and flow cytometry.

[1] = molecular target: T1, M6P/IGF2R (300 kDa protein) (Rattus norvegicus, UniProt G3V824); assay: [3H]RA photoaffinity labeling of the 300 kDa protein; assay type: binding; conditions: for Inhibition of [3H]RA photolabeling/binding to M6P/IGF2R by nonradioactive competitor: 25- to 50-fold molar excess (50 μM) competitor added before photolysis
T1 construct: about 100 μg of proteins of membrane preparations or serum; from tissue; host or cells: membrane preparations of cultured neonatal Sprague-Dawley rat cardiac myocytes
Experimental: Photoaffinity Labeling Photoaffinity labeling was performed essentially according to the methods described in Bernstein et al., 1995, Proc. Natl. Acad. Sci. USA 92:654-658. […] After the ethanol has been evaporated with nitrogen, about 100 μg of proteins of membrane preparations or serum [serum proteins were first concentrated using a Biomax-100K Centrifugal Filter Device (Millipore)] were then added to each tube. The final volume was adjusted to 100 μl with 50 mM Tris buffer (pH 7.4) containing protease inhibitors (5 mM EDTA, 5 mM EGTA, 0.1 mM phenylmethylsulfonyl fluoride, 0.05% NaN3, 20 μg/ml aprotinin, 10 μg/ml benzamidine and 12.5 μg/ml chymostatin) and 50 μM butylated hydroxytoluene (a radical scavenger, used to minimize the non-specific labeling) for a final concentration of 1 μM labeled retinoic acid. The samples were incubated at room temperature with agitation for 1 hour in the dark. The samples were exposed to an intense 365-nm UV light source (Model B 100AP, UPland, CA) for 7 min. […] To remove the non-covalently bound ligands, the photolabeled samples were extracted with chloroform/methanol (2:1), or washed once by centrifugation for membrane samples only).
Fluorography The resultant protein pellets were dissolved in SDS sample buffer containing 5% β-mercapto-ethanol and heated at 100° C. for 5 min. These samples were then run on 7% polyacrylamide gels (30:0.2, acrylamide/bisacrylamide ratio), using conventional SDS/PAGE techniques. After electrophoresis, the gels were stained with Coomassie blue, soaked in Amplifier (Amersham, Life Science) for 30 minutes, dried by a vacuum gel dryer and then exposed to Hyperfilm-TM X-ray films (Amersham, Life Science) at […] for 1-3 days.

P388D1 cells = assay: Cathepsin B distribution in P388D1 cells lacking or overexpressing M6P/IGF2R; assay type: cell-based, mouse
From the text: Intracellular Trafficking Materials Retinoic acid was obtained from Sigma Chem. Co. (St. Louis, Mo.). The synthetic retinoids used (AGN193109, TTNPB) were produced by Allergan Inc. (Irvine, Calif.). Stably-transfected P388D1 cells re-expressing the M6P/IGF2R were provided by Dr. William S. Sly (St. Louis University). The rabbit polyclonal antibody against the rat M6P/IGF-II receptor was a gift from Dr. R.G. MacDonald (University of Nebraska). The rabbit polyclonal anti-rat cathepsin B antibody was purchased from Upstate Biotechnology (N.Y.). The FITC-conjugated goat anti-rabbit IgG was obtained from Jackson ImmunoResearch Laboratories (West Grove, Pa.). Neonatal rat cardiac fibroblasts were prepared from 1-day-old rats using the Neonatal Cardiomyocyte Isolation System (Worthington) and grown on glass coverslips in F-10 nutrient mixture with 10% horse serum and 5% fetal bovine serum (FBS). Cells were used in experiments after 3-5 days of culture. Mouse macrophage P3,88D1 cells were cultured in minimum essential medium-a (MEM-α) supplemented with 10% FBS.
Cells were then fixed with 4% paraformaldehyde in phosphate-buffered saline (PBS) for 30 min. The cells were washed in PBS, permeabilized with 0.1% Triton X-100 in PBS for 5 min, and then incubated with either polyclonal anti-rat M6P/IGF2R antibody or anti-rat cathepsin B antibody (diluted 1:200) at room temperature for 1 h. […]

M6P/IGF2R = M6P/IGF2R (Rattus norvegicus, UniProt G3V824); assay: Immunofluorescence of M6P/IGF2R distribution in fibroblasts; assay type: cell-based; parameters: endogenous in cells; host or cells: primary neonatal rat cardiac fibroblasts; conditions: RA 0.25-1 μM for 2-3 h; neonatal rat fibroblasts
From the text: FIGS. 7A and 7B are photo micrographs showing the effect of retinoic acid on the distribution of the M6P/IGF2R in neonatal rat fibroblasts. […] The receptor was concentrated primarily in the perinuclear structure (probably the TGN area). […] Bar represents 4 μm.
To determine if RA affects intracellular trafficking of the M6P/IGF2R, distribution of the receptor in neonatal rat fibroblasts with or without RA treatment was visualized by immunofluorescence. The primary antibody used to target the receptor was a polyclonal anti-rat M6P/IGF2R (full length) rabbit IgG with high specificity. A non-immuno-rabbit IgG was used as a negative control. As indicated by fluorescence (FIGS. 7A and 7B), the M6P/IGF2R in the fibroblasts is normally concentrated primarily in the perinuclear structure (probably the TGN). […] This indicated a potentiating effect of RA on the trafficking of the M6P/IGF2R from the TGN to the endosomes/lysosomes.
Intracellular Trafficking Materials Retinoic acid was obtained from Sigma Chem. Co. (St. Louis, Mo.). The synthetic retinoids used (AGN193109, TTNPB) were produced by Allergan Inc. (Irvine, Calif.). Stably-transfected P388D1 cells re-expressing the M6P/IGF2R were provided by Dr. William S. Sly (St. Louis University). The rabbit polyclonal antibody against the rat M6P/IGF-II receptor was a gift from Dr. R.G. MacDonald (University of Nebraska). […]

T1 sequence (G3V824 36-2481): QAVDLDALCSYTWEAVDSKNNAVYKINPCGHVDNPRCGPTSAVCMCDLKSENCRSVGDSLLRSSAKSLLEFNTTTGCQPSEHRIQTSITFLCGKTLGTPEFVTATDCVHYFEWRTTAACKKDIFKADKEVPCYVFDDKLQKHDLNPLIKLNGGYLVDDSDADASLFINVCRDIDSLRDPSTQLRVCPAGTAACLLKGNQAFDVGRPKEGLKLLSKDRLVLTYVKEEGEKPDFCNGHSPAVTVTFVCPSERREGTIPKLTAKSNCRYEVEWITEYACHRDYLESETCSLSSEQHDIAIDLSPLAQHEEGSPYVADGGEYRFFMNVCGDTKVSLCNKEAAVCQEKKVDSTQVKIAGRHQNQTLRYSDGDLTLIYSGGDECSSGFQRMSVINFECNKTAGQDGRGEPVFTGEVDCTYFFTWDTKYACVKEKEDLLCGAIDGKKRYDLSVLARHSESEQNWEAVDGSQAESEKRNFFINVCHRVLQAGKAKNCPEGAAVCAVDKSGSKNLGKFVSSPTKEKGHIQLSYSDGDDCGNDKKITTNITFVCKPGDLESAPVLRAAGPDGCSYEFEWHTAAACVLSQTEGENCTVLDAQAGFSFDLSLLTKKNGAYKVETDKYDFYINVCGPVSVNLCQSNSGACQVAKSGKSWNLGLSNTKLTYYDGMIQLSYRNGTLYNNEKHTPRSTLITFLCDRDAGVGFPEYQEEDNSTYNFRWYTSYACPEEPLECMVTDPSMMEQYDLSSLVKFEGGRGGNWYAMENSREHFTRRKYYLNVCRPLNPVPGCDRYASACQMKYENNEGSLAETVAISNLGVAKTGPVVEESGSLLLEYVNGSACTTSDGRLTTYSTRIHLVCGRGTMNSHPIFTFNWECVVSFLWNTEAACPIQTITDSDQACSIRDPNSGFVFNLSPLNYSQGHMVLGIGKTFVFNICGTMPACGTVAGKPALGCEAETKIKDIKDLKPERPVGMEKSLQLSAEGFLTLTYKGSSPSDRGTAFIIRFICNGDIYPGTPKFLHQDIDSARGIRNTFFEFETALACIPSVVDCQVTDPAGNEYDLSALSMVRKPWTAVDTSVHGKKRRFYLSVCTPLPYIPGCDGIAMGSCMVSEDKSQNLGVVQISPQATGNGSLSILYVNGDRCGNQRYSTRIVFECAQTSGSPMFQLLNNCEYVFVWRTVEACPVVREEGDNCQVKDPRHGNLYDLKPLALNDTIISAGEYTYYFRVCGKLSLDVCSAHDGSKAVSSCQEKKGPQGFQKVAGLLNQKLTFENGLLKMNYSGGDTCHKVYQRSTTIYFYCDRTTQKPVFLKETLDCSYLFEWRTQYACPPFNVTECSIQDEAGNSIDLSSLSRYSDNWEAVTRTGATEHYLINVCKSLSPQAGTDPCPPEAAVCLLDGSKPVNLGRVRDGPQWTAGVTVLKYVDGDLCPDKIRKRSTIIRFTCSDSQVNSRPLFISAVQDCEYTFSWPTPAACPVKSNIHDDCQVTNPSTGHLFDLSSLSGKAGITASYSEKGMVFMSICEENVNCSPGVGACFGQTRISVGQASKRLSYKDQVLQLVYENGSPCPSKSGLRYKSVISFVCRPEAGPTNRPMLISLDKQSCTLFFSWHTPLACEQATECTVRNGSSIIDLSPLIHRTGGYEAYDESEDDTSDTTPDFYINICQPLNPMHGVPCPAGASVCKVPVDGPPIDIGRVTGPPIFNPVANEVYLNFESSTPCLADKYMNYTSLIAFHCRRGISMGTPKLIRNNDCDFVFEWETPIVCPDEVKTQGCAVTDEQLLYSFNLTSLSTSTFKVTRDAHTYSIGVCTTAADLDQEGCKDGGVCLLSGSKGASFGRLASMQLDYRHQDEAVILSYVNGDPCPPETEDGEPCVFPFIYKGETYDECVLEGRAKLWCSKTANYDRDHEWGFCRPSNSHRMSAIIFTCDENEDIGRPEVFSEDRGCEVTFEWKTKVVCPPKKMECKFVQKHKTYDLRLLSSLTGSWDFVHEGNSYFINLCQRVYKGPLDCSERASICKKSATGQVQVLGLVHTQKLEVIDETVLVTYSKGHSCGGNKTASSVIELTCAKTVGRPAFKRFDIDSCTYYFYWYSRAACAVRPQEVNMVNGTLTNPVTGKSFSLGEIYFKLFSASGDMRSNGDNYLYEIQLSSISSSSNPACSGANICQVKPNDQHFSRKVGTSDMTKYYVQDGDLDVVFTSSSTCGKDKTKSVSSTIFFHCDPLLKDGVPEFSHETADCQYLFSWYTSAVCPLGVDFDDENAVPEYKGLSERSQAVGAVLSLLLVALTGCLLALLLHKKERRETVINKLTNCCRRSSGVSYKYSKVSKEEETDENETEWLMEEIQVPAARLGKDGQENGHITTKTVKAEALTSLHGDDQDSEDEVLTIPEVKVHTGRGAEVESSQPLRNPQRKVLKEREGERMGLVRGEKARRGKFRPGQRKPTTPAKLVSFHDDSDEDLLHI
M6P/IGF2R, sequence (G3V824 36-2481): as above

- Inhibition of [3H]RA photolabeling/binding to M6P/IGF2R by nonradioactive competitor ([1]; listed as all-trans-retinoic acid): abolished the labeling
SMILES: CC1=C(/C=C/C(C)=C/C=C/C(C)=C/C(=O)O)C(C)(C)CCC1 [RA, all-trans-retinoic acid]
- Apoptosis (FITC-annexin V staining, flow cytometry) (HL-60R cells): significant increase in apoptosis
- Growth rate (HL-60R cells): remarkable reduction in growth rate
- Inhibition of [3H]RA photolabeling/binding to M6P/IGF2R by nonradioactive competitor [1]: the radiolabel at the 300 kDa protein was lost; also recorded: inhibited the binding
- Photoaffinity labeling of protein by [3H]RA ([1]; incubation with [3H]RA followed by photolysis): labeling of a doublet protein at 300 kDa; also recorded: intensively photolabeled
- RA-induced cathepsin B translocation (P388D1 cells; M6P/IGF2R-deficient P388D1 cells): No significant effect
- RA-induced cathepsin B translocation (P388D1 cells; stably-transfected P388D1 cells overexpressing M6P/IGF2R): remarkable cathepsin B translocation
- Intracellular distribution of M6P/IGF2R (M6P/IGF2R): translocated from perinuclear area to cytoplasmic vesicles; also recorded: movement of the receptors from the perinuclear area to the cytoplasmic vesicles
